Test results as given in article PMC5569447 (Iranian Journal of Basic Medical Sciences, 2017).
Peptide text beside a SMILES is read from it.

Test system: Mtb strain H37Rv ATCC 27294
Conditions: 24 h

## NC(=O)CC[C@H](NC(=O)[C@@H]1CCCN1C(=O)[C@@H]1CCCN1)C(=O)O [PPQ] (H-Pro-Pro-Gln-OH)
  MABA MIC: >800 µM
